The results in this text go back to patent publication EP2179734B1, “Benzoxazine and dihydroquinazoline derivatives for use in the treatment of alcohol withdrawal syndrome” (Biocodex, priority 2008, dated 2010).

The subject of assay [1] is souris sevrée. The experiment in a line: Anxiety level during alcohol withdrawal: two-compartment (light/dark) box test (Crawley and Goodwin 1980, modified). The following applies: 8 h after ethanol removal, 5 min test, withdrawn NMRI mice. In kind it is in vivo. As to the method: (§1) Des souris de souche NMRI (élevage Janvier), âgées de 5 à 6 semaines et de poids compris entre 25 et 30 g sont utilisées après 10 jours d'habituation aux conditions du laboratoire. Les conditions d'hébergement sont les suivantes : t° ambiante = 22 ± 2 °C; hygrométrie relative = 50 ± 20 %; cycle lumière/obscurité : 12 h/12 h (lumière de 7h00 à 19h00); nourriture A04 (SAFE, France) et boisson (eau du robinet) à volonté; dix animaux groupés par cage de polypropylène (435x435x194 mm).
(§2) Dans un premier temps, les animaux ont été familiarisés avec la nourriture liquide apportée sous un volume quotidien de 40 ml durant 7 à 10 jours. Celle-ci est constituée de lait chocolaté (Candia, France) auquel sont ajoutés 5 g/l d'un mélange de sels minéraux (ICN, France) et 3 g/l d'un mélange de vitamines (ICN, France).
(§3) Dans un deuxième temps, les animaux alcoolisés ont reçu la nourriture liquide contenant 3 % (p/v) d'éthanol (95°) durant 8 jours puis 4 % (p/v) d'éthanol (95°) durant 7 jours, tandis que les animaux témoins (non alcoolisés) ont eu accès à une nourriture avec l'équivalent calorique de dextrose (D-glucose, VWR, France).
(§4) Aucune nourriture solide, ni eau de boisson n'ont été proposées aux animaux durant cette période d'alcoolisation. Au terme des 15 jours d'alcoolisation (J15), le biberon avec l'alcool a été remplacé par un biberon de nourriture identique à celui des animaux témoins.
Le protocole décrit par Crawley and Goodwin (1980) Pharmacol Biochem Behav 1980; 13: 167-170 et légèrement modifié a été utilisé. Cette épreuve, reposant sur les tendances agoraphobiques et photophobiques des rongeurs, est classiquement utilisée pour mesurer leur niveau de peur ou d'anxiété.
Le dispositif est constitué d'une boîte en plexiglas à 2 compartiments (OSYS, Orga System; France) : l'un (18 x 27 x 30 cm) sombre et pourvu d'un couvercle, est éclairé à l'aide d'une lampe rouge (60W; 4 lux) tandis que le plus grand (27 x 27 x 30 cm), peint en blanc, est éclairé à l'aide d'une lampe de 60 W (400 lux). Une entrée (7.5 x 7.5 cm) située au centre de la cloison qui sépare les 2 compartiments, relie les 2 compartiments. Ceux-ci, équipés de cellules photoélectriques infra-rouges (4 dans le compartiment clair et 3 dans le compartiment sombre) reliées à un compteur digital, permettent la détection et la mesure des déplacements de l'animal. Celui-ci est déposé au centre du compartiment sombre face à l'ouverture. La latence d'entrée (en sec.) dans le compartiment clair, le nombre de déplacements dans le compartiment clair et le nombre de transition entre les 2 compartiments sombre et clair sont relevés au terme d'une épreuve de 5 min. La boîte est nettoyée avec de l'eau alcoolisée (10 %; v/v) pour éliminer toute trace odorante entre chaque passage. L'épreuve est réalisée 8 h après le retrait de la nourriture alcoolisée. Ce délai correspond au temps optimal pour la mesure du niveau d'anxiété chez l'animal soumis au sevrage alcoolique (Watson et Little (1994) Psychopharmacology (Berl) 114: 329-336).
L'étifoxine (6.25 - 50 mg/kg) ou le diazépam (1 mg/kg) est administré par voie ip 30 min avant l'épreuve. Les animaux contrôles reçoivent un volume équivalent de liquide véhicule.
L'étifoxine (lots 219 et 350; Biocodex - France) est mis en suspension dans une solution saline (NaCl-0.9 %; p/v) de tween 80 à 1% (v/v) tandis que le diazépam (Valium®) est solubilisé dans une solution saline. Le volume d'administration par voie ip est de 0.1 ml/10 g.
Les résultats sont exprimés par la valeur moyenne ± erreur standard à la moyenne (esm). Concernant la mesure de l'intensité des convulsions induites par la manipulation, l'analyse de variance (ANOVA) à 2 facteurs (temps x traitement) avec mesures répétées sur le facteur temps suivie de manière post-hoc par le test de Student Newman-Keuls, a été utilisée pour localiser les différences entre les groupes expérimentaux. […]

Assay [2] relates to souris sevrée. The experiment in a line: Handling-induced convulsion score during alcohol withdrawal (Watson and Little 1995). Type of assay: in vivo. The following applies: NMRI mice, 4 to 6 h after removal. As to the method: as §1, §2, §3, §4
Cette mesure est effectuée selon le protocole décrit par Watson and Little (1995) J Pharmacol Exp Ther 272: 876-884. Brièvement, l'animal est soulevé par la queue et maintenu durant 30 secondes à 30 cm d'une lampe pourvue d'une ampoule de 60W puis subit une légère rotation (360°). Le comportement de chaque animal est évalué selon une échelle de cotation de 0 à 5, selon des critères figurant dans le Tableau 1 : Tableau 1 : Différents niveaux de cotation du comportement chez la souris selon Watson et Little (1995)
La mesure est réalisée avant l'expérience (conditions basales), 24 heures avant le retrait de l'éthanol puis le jour du retrait toutes les heures de 1 à 7 heures après le retrait du biberon de nourriture (7h00 - 8h00 le matin).
L'étifoxine (6.25 - 100 mg/kg) et le diazépam (1 et 4 mg/kg) sont administrés par voie intrapéritonéale (ip) 3h30 après le retrait du biberon. Une étude préliminaire a montré que les signes de sevrage étaient présents à ce temps (score ≥ 2). Les animaux contrôles reçoivent un volume équivalent de liquide véhicule.
Un score (de 0 à 5) est attribué pour chaque animal à chaque temps (de 1 à 7 h).
L'étifoxine (lots 219 et 350; Biocodex - France) est mis en suspension dans une solution saline (NaCl-0.9 %; p/v) de tween 80 à 1% (v/v) tandis que le diazépam (Valium®) est solubilisé dans une solution saline. Le volume d'administration par voie ip est de 0.1 ml/10 g. […]

With `CCNC1=Nc2ccc(Cl)cc2C(C)(c2ccccc2)O1` (stereo not shown) [étifoxine, chlorhydratede 6-chloro-2-éthylamino-4-méthyl-4-phényl-4H-[3,1]benzoxazine], in assay [1] (50 mg/kg ip 30 min before test), the “latence d'entrée dans le compartiment clair” value is on record as “s'oppose aux effets du sevrage à l'éthanol sur ces 3 paramètres avec un effet statistiquement significatif”, the “nombre de déplacements dans le compartiment clair” value is on record as “s'oppose aux effets du sevrage à l'éthanol sur ces 3 paramètres avec un effet statistiquement significatif” and the “nombre de transitions entre les 2 compartiments” value was “s'oppose aux effets du sevrage à l'éthanol sur ces 3 paramètres avec un effet statistiquement significatif”. Besides, the score de convulsions result in assay [2] (12.5 mg/kg ip 3h30 after ethanol removal, vs alcoholised controls, p<0.05) is recorded as “réduit significativement le score de convulsions”. The score de convulsions result in assay [2] (25 mg/kg ip 3h30 after ethanol removal, vs alcoholised controls, p<0.05) is reported as “réduit significativement le score de convulsions”. Further, in assay [2] (100 mg/kg ip 3h30 after ethanol removal, vs alcoholised controls, p<0.05), the score de convulsions result is given as “réduit significativement le score de convulsions”.
On to `CN1C(=O)CN=C(c2ccccc2)c2cc(Cl)ccc21` [diazépam], for which, in assay [1] (1 mg/kg ip 30 min before test), the “latence d'entrée dans le compartiment clair” value is “atténue également de manière significative les effets du retrait de l'éthanol”, the “nombre de déplacements dans le compartiment clair” value is on record as “atténue également de manière significative les effets du retrait de l'éthanol” and the “nombre de transitions entre les 2 compartiments” value is “atténue également de manière significative les effets du retrait de l'éthanol”. Moreover, the score de convulsions entry in assay [2] (mainly at 4 mg/kg ip 3h30 after ethanol removal) is recorded as “produit le même effet”.
